In ChEMBL document CHEMBL5338744, “Development and Characterization of Benzoselenazole Derivatives as Potent and Selective c-MYC Transcription Inhibitors” (J Med Chem, 2023):
Active and inactive are the calls of the source. The rule behind the calls is not given here.

How the values were obtained:
[1] = Cytotoxicity against human NCM460 cells assessed as reduction in cell viability incubated for 48 hrs by MTT assay; format: toxicity, cell-based
[2] = test system: HepG2; experiment: Cytotoxicity against human HepG2 cells assessed as reduction in cell viability incubated for 48 hrs by MTT assay; format: functional, cell-based; conditions: HepG2, 48 h
[3] = test system: HCT-116; experiment: Cytotoxicity against human HCT-116 cells assessed as reduction in cell viability incubated for 48 hrs by MTT assay; format: functional, cell-based; conditions: HCT-116, 48 h
[4] = target: Quadruplex DNA; experiment: Binding affinity to G-quadruplex DNA VEGF (unknown origin) by fluorescence spectroscopic analysis; format: nucleic-acid assay
[5] = target: Quadruplex DNA; experiment: Binding affinity to G-quadruplex DNA c-kit1 (unknown origin) by fluorescence spectroscopic analysis; format: nucleic-acid assay
[6] = Cytotoxicity against human L02 cells assessed as reduction in cell viability incubated for 48 hrs by MTT assay; format: toxicity, cell-based
[7] = test system: HepG2; experiment: Downregulation of c-MYC expression level in human HepG2 cells incubated for 48 hrs by Western blotting analysis; format: functional, cell-based; conditions: dose 0-10 µM
[8] = test system: HepG2; experiment: Inhibition of c-MYC transcription in human HepG2 cells up to 10 uM incubated for 48 hrs by RT-qPCR analysis; format: functional, cell-based
[9] = target: Quadruplex DNA; experiment: Binding affinity to G-quadruplex DNA pu22 mutant (unknown origin) by fluorescence spectroscopic analysis; format: nucleic-acid assay
[10] = target: Quadruplex DNA; experiment: Binding affinity to G-quadruplex DNA pu22 (unknown origin) by fluorescence spectroscopic analysis; format: nucleic-acid assay
[11] = target: Quadruplex DNA; experiment: Binding affinity to G-quadruplex DNA HRAS (unknown origin) by fluorescence spectroscopic analysis; format: nucleic-acid assay
[12] = target: Quadruplex DNA; experiment: Binding affinity to G-quadruplex DNA htg22 (unknown origin) by fluorescence spectroscopic analysis; format: nucleic-acid assay
[13] = target: Quadruplex DNA; experiment: Binding affinity to G-quadruplex DNA ds26 (unknown origin) by fluorescence spectroscopic analysis; format: nucleic-acid assay
[14] = test system: Quadruplex DNA; experiment: Binding affinity to G-quadruplex DNA pu22 (unknown origin) assessed as melting temperature at 10 uM by circular dichroism analysis
[15] = test system: HepG2; experiment: Antitumor activity against human HepG2 cells xenografted in BALB/C-nu/nu mouse assessed as decrease in c-MYC expression in tumor tissue at 15 mg/kg, ip administered every other day for 28 days by immunohistochemical analysis; format: functional, organism-based; conditions: time 28.0 day
[16] = Toxicity in BALB/C-nu/nu mouse xenografted with human HepG2 cells assessed as sign of discomfort at 15 mg/kg, ip administered every other day for 28 days; format: organism-based; conditions: in vivo, 672 h, time 28 day
[17] = Toxicity in nude mouse assessed as mortality at 30 mg/kg administered for 5 days; format: organism-based; conditions: in vivo, 120 h, time 5 day
[18] = test system: HepG2; experiment: Inhibition of colony formation in human HepG2 cells at 1 uM measured after 14 days by crystal violet staining based assay; format: functional, cell-based; conditions: time 14.0 day
[19] = test system: HepG2; experiment: Effect on cell cycle distribution in human HepG2 cells assessed as accumulation of cells in S phase at 1.25 to 5 uM incubated for 48 hrs by PI staining based flow cytometric analysis; format: functional; conditions: dose 1.25-5 µM
[20] = test system: HepG2; experiment: Disruption of NM23-H2/c-MYC G quadruplex DNA interaction in human HepG2 cells at 1.25 uM incubated for 1 hr by ChIP assay; format: cell-based
[21] = test system: HepG2; experiment: Antitumor activity against human HepG2 cells xenografted in BALB/C-nu/nu mouse assessed as tumor growth inhibition at 15 mg/kg, ip administered every other day for 28 days; format: functional; conditions: HepG2, 672 h, time 28 day, read-out: TGI
[22] = Toxicity in BALB/C-nu/nu mouse xenografted with human HepG2 cells assessed as abnormality in kidney at 15 mg/kg, ip administered every other day for 28 days by hematoxylin and eosin staining method; format: organism-based; conditions: in vivo, 672 h, time 28 day
[23] = Toxicity in BALB/C-nu/nu mouse xenografted with human HepG2 cells assessed as abnormality in liver at 15 mg/kg, ip administered every other day for 28 days by hematoxylin and eosin staining method; format: organism-based; conditions: in vivo, 672 h, time 28 day
[24] = Toxicity in BALB/C-nu/nu mouse xenografted with human HepG2 cells assessed as changes in body weight at 15 mg/kg, ip administered every other day for 28 days; format: organism-based; conditions: in vivo, 672 h, time 28 day
[25] = test system: HepG2; experiment: Induction of apoptosis in human hepG2 cells assessed as early apoptotic cells at 1.25 to 5 uM incubated for 48 hrs by Annexin V-FITC and propidium iodide staining based flow cytometric analysis; format: functional; conditions: dose 1.25-5 µM
[26] = Toxicity in BALB/C-nu/nu mouse xenografted with human HepG2 cells assessed as abnormality in heart at 15 mg/kg, ip administered every other day for 28 days by hematoxylin and eosin staining method; format: organism-based; conditions: in vivo, 672 h, time 28 day
[27] = test system: HepG2; experiment: Antitumor activity against human HepG2 cells xenografted in BALB/C-nu/nu mouse assessed as reduction in tumor weight at 15 mg/kg, ip administered every other day for 28 days; format: functional, organism-based; conditions: time 28.0 day
[28] = test system: CA46; experiment: Inhibition of c-MYC G-quadruplex exon 1 transcription in human CA46 cells incubated for 48 hrs by RT-qPCR analysis; format: functional, cell-based; conditions: dose 1.25-2.5 µM
[29] = Toxicity in BALB/C-nu/nu mouse xenografted with human HepG2 cells assessed as sign of distress at 15 mg/kg, ip administered every other day for 28 days; format: organism-based; conditions: in vivo, 672 h, time 28 day
[30] = Toxicity in BALB/C-nu/nu mouse xenografted with human HepG2 cells assessed as sign of pain at 15 mg/kg, ip administered every other day for 28 days; format: organism-based; conditions: in vivo, 672 h, time 28 day
[31] = test system: HepG2; experiment: Antitumor activity against human HepG2 cells xenografted in BALB/C-nu/nu mouse assessed as reduction in tumor volume at 15 mg/kg, ip administered every other day for 28 days; format: functional, organism-based; conditions: time 28.0 day
[32] = Toxicity in BALB/C-nu/nu mouse xenografted with human HepG2 cells assessed as abnormality in lung at 15 mg/kg, ip administered every other day for 28 days by hematoxylin and eosin staining method; format: organism-based; conditions: in vivo, 672 h, time 28 day
[33] = Toxicity in BALB/C-nu/nu mouse xenografted with human HepG2 cells assessed as abnormality in spleen at 15 mg/kg, ip administered every other day for 28 days by hematoxylin and eosin staining method; format: organism-based; conditions: in vivo, 672 h, time 28 day
[34] = Toxicity in nude mouse assessed as changes in body weight at 30 mg/kg administered for 5 days; format: organism-based; conditions: in vivo, 120 h, time 5 day
[35] = Disruption of NM23-H2/c-MYC G quadruplex DNA (unknown origin) interaction incubated for 1 hr by ELISA

CN(C)CCCn1c2ccccc2c2cc(/C=C/c3nc4ccccc4s3)ccc21
IC50 at 48 h [1]: > 100 µM
IC50 [2]: 21.3 µM
IC50 [3]: 42.9 µM

CCn1c2ccccc2c2cc(/C=C/c3[se]c4ccccc4[n+]3C)ccc21
IC50 at 48 h [1]: 29.2 µM
Kd [4]: 7.6 µM
Kd [5]: 6.5 µM
IC50 at 48 h [6]: 27.3 µM
IC50 [2]: 1.6 µM
Activity [7]: Dose-Dependent Effect
inhibition [8]: Active
IC50 [3]: 3.4 µM
Kd [9]: > 20 µM
Kd [10]: 0.4 µM
Kd [11]: > 20 µM
Kd [12]: 8.8 µM
Kd [13]: > 20 µM
Tm [14]: 80.1 °C

CN(C)CCCn1c2ccccc2c2cc(/C=C/c3[se]c4ccccc4[n+]3C)ccc21
IC50 at 48 h [1]: 87.7 µM
IC50 [2]: 26.2 µM
IC50 [3]: 15 µM

CCn1c2ccccc2c2cc(/C=C/c3nc4c(ccc5ccccc54)[se]3)ccc21
IC50 at 48 h [1]: > 100 µM
IC50 [2]: > 100 µM
IC50 [3]: > 100 µM

CCn1c2ccccc2c2cc(/C=C/c3sc4ccccc4[n+]3C)ccc21
IC50 at 48 h [1]: 39.3 µM
IC50 [2]: 5.7 µM
IC50 [3]: 4 µM

CCn1c2ccccc2c2cc(/C=C/c3nc4ccccc4[se]3)ccc21
IC50 at 48 h [1]: > 100 µM
IC50 [2]: 13.4 µM
IC50 [3]: 19.5 µM

CN(C)CCCn1c2ccccc2c2cc(/C=C/c3sc4ccccc4[n+]3C)ccc21
IC50 at 48 h [1]: 30.2 µM
IC50 [2]: 11.3 µM
IC50 [3]: 14.7 µM

CCn1c2ccccc2c2cc(/C=C/c3nc4ccccc4s3)ccc21
IC50 at 48 h [1]: > 100 µM
IC50 [2]: 52.1 µM
IC50 [3]: > 100 µM

CN(C)CCCn1c2ccccc2c2cc(/C=C/c3nc4ccccc4[se]3)ccc21
IC50 at 48 h [1]: > 100 µM
IC50 [2]: > 100 µM
IC50 [3]: 34.4 µM

CCn1c2ccccc2c2cc(/C=C/c3oc4ccccc4[n+]3C)ccc21
IC50 at 48 h [1]: > 100 µM
IC50 [2]: 43.3 µM
IC50 [3]: 46.7 µM

CN(C)CCCn1c2ccccc2c2cc(/C=C/c3nc4ccccc4o3)ccc21
IC50 at 48 h [1]: > 100 µM
IC50 [2]: 21.6 µM
IC50 [3]: 36.9 µM

CCn1c2ccccc2c2cc(/C=C/c3nc4c(ccc5ccccc54)o3)ccc21
IC50 at 48 h [1]: > 100 µM
IC50 [2]: > 100 µM
IC50 [3]: > 100 µM

CN(C)CCCn1c2ccccc2c2cc(/C=C/c3oc4ccccc4[n+]3C)ccc21
IC50 at 48 h [1]: 35.6 µM
IC50 [2]: 5.9 µM
IC50 [3]: 4.7 µM

C[n+]1c(/C=C/c2ccc3c(c2)c2ccccc2n3Cc2ccccc2)[se]c2ccccc21.[I-]
IC50 at 48 h [1]: 77.6 µM
Activity [15]: Active
Activity [16]: Non-Toxic
Kd [4]: 17.9 µM
Activity [17]: Toxic
inhibition [18]: Active
Kd [5]: 9.6 µM
Activity [19]: 14.6%
Activity [20]: Active
inhibition in vivo at 15 mg/kg [21]: 65.8%
IC50 at 48 h [6]: > 100 µM
Activity [22]: Non-Toxic
Activity [23]: Non-Toxic
Activity [24]: Non-Toxic
Activity [25]: 1.7%
Activity [26]: Non-Toxic
IC50 [2]: 3.5 µM
Activity [7]: Dose-Dependent Effect
inhibition [8]: Active
Activity [27]: Active
inhibition [28]: Dose-Dependent Effect
Activity [29]: Non-Toxic
IC50 [3]: 4.1 µM
Activity [30]: Non-Toxic
Kd [9]: > 20 µM
Kd [10]: 0.9 µM
Kd [11]: > 20 µM
Activity [31]: Active
Activity [32]: Non-Toxic
Activity [33]: Non-Toxic
Activity [34]: Toxic
Kd [12]: > 20 µM
Kd [13]: > 20 µM
IC50 [35]: 9.8 µM
Tm [14]: 78.3 °C

CCn1c2ccccc2c2cc(/C=C/c3nc4c(ccc5ccccc54)s3)ccc21
IC50 at 48 h [1]: > 100 µM
IC50 [2]: 58.7 µM
IC50 [3]: > 100 µM

C(=C\c1nc2ccccc2o1)/c1ccc2c(c1)c1ccccc1n2Cc1ccccc1
IC50 at 48 h [1]: > 100 µM
IC50 [2]: 5.7 µM
IC50 [3]: 25.9 µM

C[n+]1c(/C=C/c2ccc3c(c2)c2ccccc2n3Cc2ccccc2)sc2ccccc21
IC50 at 48 h [1]: 45.6 µM
IC50 [2]: 7.4 µM
IC50 [3]: 4.1 µM

CCn1c2ccccc2c2cc(/C=C/c3[se]c4ccc5ccccc5c4[n+]3C)ccc21
IC50 at 48 h [1]: 42.5 µM
IC50 [2]: 4.5 µM
IC50 [3]: 9 µM

CCn1c2ccccc2c2cc(/C=C/c3nc4ccccc4o3)ccc21
IC50 at 48 h [1]: > 100 µM
IC50 [2]: 37.7 µM
IC50 [3]: 32.1 µM

CCn1c2ccccc2c2cc(/C=C/c3sc4ccc5ccccc5c4[n+]3C)ccc21
IC50 at 48 h [1]: 26.1 µM
IC50 [2]: 8.3 µM
IC50 [3]: 2.5 µM

C(=C\c1nc2ccccc2[se]1)/c1ccc2c(c1)c1ccccc1n2Cc1ccccc1
IC50 at 48 h [1]: > 100 µM
IC50 [2]: > 100 µM
IC50 [3]: > 100 µM

CCn1c2ccccc2c2cc(/C=C/c3oc4ccc5ccccc5c4[n+]3C)ccc21
IC50 at 48 h [1]: > 100 µM
IC50 [2]: 93.3 µM
IC50 [3]: 26.3 µM

C[n+]1c(/C=C/c2ccc3c(c2)c2ccccc2n3Cc2ccccc2)oc2ccccc21
IC50 at 48 h [1]: > 100 µM
IC50 [2]: 96.2 µM
IC50 [3]: 32.3 µM

C(=C\c1nc2ccccc2s1)/c1ccc2c(c1)c1ccccc1n2Cc1ccccc1
IC50 at 48 h [1]: > 100 µM
IC50 [2]: 53.2 µM
IC50 [3]: > 100 µM
